pIC50: −log10 of the molar value.
biological target: T1, recombinant human GST-Syk (Homo sapiens, UniProt P43405); test: Homogeneous Time-Resolved Fluorescence (HTRF) assay for the recombinant human Syk enzyme; assay type: biochemical; settings: recombinant human GST-Syk 5 pM, ATP 25 μM, 10-dose titration 10 μM to 0.508 nM; read-out: rhSYK Activity IC50
T1 construct: purchased Carna Biosciences 08-176
How it was run: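 Detection used time-resolved fluorescence 30 min after adding a quench mix (40 mM EDTA, 15 mM Tris pH 7.5, 0.01% Tween 20) containing 2 nM Europium anti-pTyr antibody and 70 nM streptavidin-APC. This followed 45 min of room-temperature peptide phosphorylation by recombinant GST-tagged human Syk.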

Row | pIC50 | Structure (SMILES)
1 | 7.52 | CC(C)=CCn1cc(-c2cc(C)cc(Nc3cc(C(F)(F)F)ccn3)n2)nn1 [Example 5.37, 4-methyl-6-[1-(3-methylbut-2-en-1-yl)-1H-1,2,3-triazol-4-yl]-N-[4-(trifluoromethyl)pyridin-2-yl]pyridin-2-amine]
2 | 8.43 | Cc1cc(Nc2cc(C(F)F)ccn2)nc(-c2cn(C3CCCC(O)C3O)nn2)c1 (stereo not shown) [Example 21.38, 3-(4-(6-((4-(difluoromethyl)pyridin-2-yl)amino)-4-methylpyridin-2-yl)-1H-1,2,3-triazol-1-yl)cyclohexane-1,2-diol]
3 | 8.92 | Cc1cc(Nc2cc(C(F)F)ccn2)nc(-c2cn(C3CCCCC3O)nn2)c1 (single isomer, unassigned) [Example 7.24, 2-[4-(6-{[4-(difluoromethyl)pyridin-2-yl]amino}-4-methylpyridin-2-yl)-1H-1,2,3-triazol-1-yl]cyclohexanol]
4 | 7.71 | Cc1cc(Nc2cc(C(F)(F)F)ccn2)nc(-c2cn(CC3(O)CCCCC3O)nn2)c1 (stereo not shown) [Example 10.10, 1-{[4-(4-methyl-6-{[4-(trifluoromethyl)pyridin-2-yl]amino}pyridin-2-yl)-1H-1,2,3-triazol-1-yl]methyl}cyclohexane-1,2-diol]
5 | 8.77 | Cc1cc(Nc2nccc(C(F)F)n2)cc(-c2cn(CC3CNCCO3)nn2)c1 (single isomer, unassigned) [Example 22.2, 4-(difluoromethyl)-N-(3-methyl-5-(1-(morpholin-2-ylmethyl)-1H-1,2,3-triazol-4-yl)phenyl) pyrimidin-2-amine]
6 | 7.61 | Cc1cc(Nc2nccc(C(F)(F)F)n2)cc(-c2cn(C[C@H](O)CO)nn2)c1 [Example 5.24, (2S)-3-[4-(3-methyl-5-{[4-(trifluoromethyl)pyrimidin-2-yl]amino}phenyl)-1H-1,2,3-triazol-1-yl]propane-1,2-diol]
7 | 6.74 | Cc1cc(Nc2nccc(C(F)(F)F)n2)cc(-c2cn(CC(=O)NC(C)(C)C)nn2)c1 [Example 5.70, N-tert-butyl-2-[4-(3-methyl-5-{[4-(trifluoromethyl)pyrimidin-2-yl]amino}phenyl)-1H-1,2,3-triazol-1-yl]acetamide]
8 | 7.84 | Cc1cc(Nc2nccc(C(F)(F)F)n2)cc(-n2cc(C3(O)CCC(C(=O)O)C(C)(C)C3)nn2)c1 (stereo not shown) [Example 15.2]
9 | 7.20 | COC(=O)C(c1ccc(F)cc1)n1cc(-c2cc(C)cc(Nc3cc(C(F)(F)F)ccn3)n2)nn1 (racemic) [Example 5.26, methyl (4-fluorophenyl)[4-(4-methyl-6-{[4-(trifluoromethyl)pyridin-2-yl]amino}pyridin-2-yl)-1H-1,2,3-triazol-1-yl]acetate]
10 | 8.33 | Cc1cc(Nc2nccc(C(F)F)n2)cc(-c2cn(CC3(O)CNC(=O)C3)nn2)c1 (single isomer, unassigned) [Example 31.2, 4-((4-(3-((4-(Difluoromethyl)pyrimidin-2-yl)amino)-5-methylphenyl)-1H-1,2,3-triazol-1-yl)methyl)-4-hydroxypyrrolidin-2-one]
11 | 7.33 | Cc1cc(Nc2nccc(C(F)(F)F)n2)cc(-c2cn(CCS(C)(=O)=O)nn2)c1 [Example 5.62, N-(3-methyl-5-{1-[2-(methylsulfonyl)ethyl]-1H-1,2,3-triazol-4-yl}phenyl)-4-(trifluoromethyl)pyrimidin-2-amine]
12 | 7.77 | Cc1cc(Nc2nccc(C(F)(F)F)n2)cc(-c2cn(C3CCCCC3O)nn2)c1 (racemic) [Example 5.57, 2-[4-(3-methyl-5-{[4-(trifluoromethyl)pyrimidin-2-yl]amino}phenyl)-1H-1,2,3-triazol-1-yl]cyclohexanol]
13 | 7.61 | Cc1cc(Nc2cc(C(F)(F)F)ccn2)nc(-c2cn(CC(=O)N3CCC(C(=O)O)CC3)nn2)c1 (racemic) [Example 5.80, 1-{[4-(4-methyl-6-{[4-(trifluoromethyl)pyridin-2-yl]amino}pyridin-2-yl)-1H-1,2,3-triazol-1-yl]acetyl}piperidine-4-carboxylic acid]
14 | 8.14 | Cc1cc(Nc2cc(C(F)(F)F)ccn2)nc(-c2cn(CC(C)(O)CO)nn2)c1 (stereo not shown) [Example 10.15, 2-methyl-3-[4-(4-methyl-6-{[4-(trifluoromethyl)pyridin-2-yl]amino}pyridin-2-yl)-1H-1,2,3-triazol-1-yl]propane-1,2-diol]
15 | 7.82 | Cc1cc(Nc2cc(C(F)(F)F)ccn2)nc(-c2cn(C3CN(C(=O)CCC(N)=O)CC3O)nn2)c1 (stereo not shown) [Example 13.5, 4-{-3-hydroxy-4-[4-(4-methyl-6-{[4-(trifluoromethyl)pyridin-2-yl]amino}pyridin-2-yl)-1H-1,2,3-triazol-1-yl]pyrrolidin-1-yl}-4-oxobutanamide]
16 | 7.16 | Cc1cc(Nc2nccc(C)n2)cc(-c2cn(C3CCCCC3O)nn2)c1 (single isomer, unassigned) [Example 7.21, 2-(4-{3-methyl-5-[(4-methylpyrimidin-2-yl)amino]phenyl}-1H-1,2,3-triazol-1-yl)cyclohexanol]

Further lines, the compound ahead of its results:

Row | Structure (SMILES) | pIC50
17 | Cc1cc(Nc2cc(C(F)(F)F)ccn2)nc(-c2cn(C3CCC(C(=O)O)C(C)(C)C3)nn2)c1 (single isomer, unassigned) [Example 3.7, (R or S) 2,2-dimethyl-4-[4-(4-methyl-6-{[4-(trifluoromethyl)pyridin-2-yl]amino}pyridin-2-yl)-1H-1,2,3-triazol-1-yl]cyclohexanecarboxylic acid] | 8.43
18 | Cc1cc(Nc2nccc(C(F)(F)F)n2)cc(-c2ncnn2C[C@H](O)CO)c1 [Example 2.15, (2S)-3-[5-(3-methyl-5-{[4-(trifluoromethyl)pyrimidin-2-yl]amino}phenyl)-1H-1,2,4-triazol-1-yl]propane-1,2-diol] | 5.50
19 | Cc1cc(Nc2cc(C(F)(F)F)ccn2)nc(-c2cn(C(C)C(=O)N3CCc4ccccc4C3)nn2)c1 (stereo not shown) [Example 1.28, 6-{1-[2-(3,4-dihydroisoquinolin-2(1H)-yl)-1-methyl-2-oxoethyl]-1H-1,2,3-triazol-4-yl}-4-methyl-N-[4-(trifluoromethyl)pyridin-2-yl]pyridin-2-amine] | 6.19
20 | Cc1cc(Nc2cc(C(F)(F)F)ccn2)nc(-c2cn(C(C)C(=O)N3CCc4c([nH]c5ccccc45)C3)nn2)c1 (stereo not drawn) [Example 1.31, 4-methyl-6-{1-[1-methyl-2-oxo-2-(1,3,4,9-tetrahydro-2H-beta-carbolin-2-yl)ethyl]-1H-1,2,3-triazol-4-yl}-N-[4-(trifluoromethyl)pyridin-2-yl]pyridin-2-amine] | 6.50
21 | Cc1cc(Nc2cc(C(F)(F)F)ccn2)nc(-c2cn(CC(O)c3ccc(C(=O)O)cc3)nn2)c1 (stereo not shown) [Example 3.18, 4-{1-hydroxy-2-[4-(4-methyl-6-{[4-(trifluoromethyl)pyridin-2-yl]amino}pyridin-2-yl)-1H-1,2,3-triazol-1-yl]ethyl}benzoic acid] | 8.72
22 | COC(=O)C1CCC(O)(Cn2cc(-c3cc(C)cc(Nc4nccc(C(F)(F)F)n4)c3)nn2)CC1(C)C (stereo not shown) [Example 4.11, methyl 4-hydroxy-2,2-dimethyl-4-{[4-(3-methyl-5-{[4-(trifluoromethyl)pyrimidin-2-yl]amino}phenyl)-1H-1,2,3-triazol-1-yl]methyl}cyclohexanecarboxylate] | 6.84
23 | Cc1cc(Nc2cc(C(F)(F)F)ccn2)nc(-c2cn(CCC(N)=O)nn2)c1 [Example 1.3, 3-[4-(4-methyl-6-{[4-(trifluoromethyl)pyridin-2-yl]amino}pyridin-2-yl)-1H-1,2,3-triazol-1-yl]propanamide] | 8.42
24 | Cc1cc(Nc2cc(C(F)(F)F)ccn2)nc(-c2cn(C3CNCC3O)nn2)c1 (stereo not shown) [Example 4.15, 4-[4-(4-methyl-6-{[4-(trifluoromethyl)pyridin-2-yl]amino}pyridin-2-yl)-1H-1,2,3-triazol-1-yl]pyrrolidin-3-ol] | 7.48
25 | Cc1cc(Nc2nccc(C(F)(F)F)n2)cc(-c2cn(C[C@@]3(O)CC[C@H](C(=O)O)C(C)(C)C3)nn2)c1 (racemic) [Example 4.1, Racemic syn-4-Hydroxy-2,2-dimethyl-4-((4-(3-methyl-5-((4-(trifluoromethyl)pyrimidin-2-yl)amino)phenyl)-1H-1,2,3-triazol-1-yl)methyl)cyclohexane carboxylic acid] | 7.09
26 | Cc1cc(Nc2nccc(C(F)(F)F)n2)cc(-c2cn(C3COCC3O)nn2)c1 (single isomer, unassigned) [Example 4.5, 4-[4-(3-methyl-5-{[4-(trifluoromethyl)pyrimidin-2-yl]amino}phenyl)-1H-1,2,3-triazol-1-yl]tetrahydrofuran-3-ol] | 7.21
27 | Cc1cc(Nc2cc(C(F)(F)F)ccn2)nc(-c2cn([C@@H](C)C(N)=O)nn2)c1 [Example 1.24, (2S)-2-[4-(4-methyl-6-{[4-(trifluoromethyl)pyridin-2-yl]amino}pyridin-2-yl)-1H-1,2,3-triazol-1-yl]propanamide] | 7.85
28 | Cc1cc(Nc2cc(F)ccn2)nc(-c2cn(C(C)c3ccc(C(=O)O)cc3)nn2)c1 (stereo not shown) [Example 2.2, 4-[1-(4-{6-[(4-fluoropyridin-2-yl)amino]-4-methylpyridin-2-yl}-1H-1,2,3-triazol-1-yl)ethyl]benzoic acid] | 8.05
29 | Cc1cc(Nc2cc(C(F)(F)F)ccn2)nc(-c2cn(C[C@@H](O)C(=O)O)nn2)c1 [Example 4.20, (2R)-2-hydroxy-3-[4-(4-methyl-6-{[4-(trifluoromethyl)pyridin-2-yl]amino}pyridin-2-yl)-1H-1,2,3-triazol-1-yl]propanoic acid] | 7.77
30 | Cc1cc(Nc2cc(C(F)(F)F)ccn2)nc(-c2cn(CC(O)CN3CCCC3=O)nn2)c1 (stereo not shown) [Example 4.30, 1-{2-hydroxy-3-[4-(4-methyl-6-{[4-(trifluoromethyl)pyridin-2-yl]amino}pyridin-2-yl)-1H-1,2,3-triazol-1-yl]propyl}pyrrolidin-2-one] | 7.58
31 | Cc1cc(Nc2cc(C(F)(F)F)ccn2)nc(-c2cn(CC(O)Cn3cccn3)nn2)c1 (stereo not shown) [Example 4.28, 1-[4-(4-methyl-6-{[4-(trifluoromethyl)pyridin-2-yl]amino}pyridin-2-yl)-1H-1,2,3-triazol-1-yl]-3-(1H-pyrazol-1-yl)propan-2-ol] | 8.18
